Ends that are not written are not given here. Peptide text beside a SMILES is read from it. * marks the point of attachment. Cbz = O=C(OCc1ccccc1)*
How the values were obtained:
S87A-IL-1α protein = S87A-IL-1α protein stability in stably transfected 293 cells (western blot); format: cell-based, human; conditions: 293 cells stably expressing S87A-IL-1α, MG132 5 hours vs DMSO
Experimental: FIGS. 1A-1C depict in accordance with various embodiments of the invention, that serine phosphorylation is required for IL-1α protein stability. FIG. 1A) Relative expression of IL-1α mRNA by qPCR. FIG. 1B) Western Blot of IL-1α protein level in cell lysates. FIG. 1C) Western blot of IL-1α in cell lysates of cells treated with DMSO or MG132 for 5 hours.
Human IL-1α is phosphorylated at the serine 87 (S87) residue (mouse equivalent to S90) of the N-terminal pro-piece by protein kinase A (PKA). […] IL-1α phosphorylation is required for its membrane localization. A mutant IL-1α plasmid cDNA was made for studying the role of IL-1α subcellular localization: the Serine at 87 was exchanged with Alanine (S87A) using the QuikChange Site-Directed Mutagenesis kit, Cat #200518 and human pCMV-IL-1α-flag plasmid DNA (Sino Biological Inc. Cat #HG10128-M-F). Primers were designed by the QuikChange Primer Design software program.
Wild-type (WT)-IL-1α or mutant S87A-IL-1α plasmid was transfected into 293 cells and stable expressing cells lines were made. These cells express similar levels of IL-1α mRNA (FIG. 1A). IL-1α protein was detected only in WT-IL-1α transfected cells but not mutant S87A-IL-1α transfected cells (FIG. 1B). […] Based on this finding, a pseudosubstrate peptide was made to inhibit IL-1α phosphorylation, which may provide a more convenient way to control IL-1α during inflammation. […]

[1] = Membrane lipid strip binding (ECL detection); conditions: membrane lipid strips incubated with peptide (5 μg) or recombinant protein
Experimental: (§1) FIGS. 12A-12F depict in accordance with various embodiments of the invention, that the iIL-1α-peptide reduces cutaneous melanoma tumor. FIG. 12A-12B) Membrane lipid strips were incubated with (5 μg) SPDIA or Control peptide and detected by ECL. FIG. 12C) B16 or YUMM1.7 cells were treated with SPDIA or Control peptide (40 μg/ml) for 5 h, and pAkt1 and Akt1 in cell lysate were determined by WB. FIG. 12D) Experimental scheme. FIG. 12E) tumor pictures. FIG. 12F) Quantification of tumor volume, ** p<0.05. and Quantification of tumor mass, ** p<0.05. n=5.
FIGS. 14A-14C show intracellular IL-1α reduced Akt1 activation. FIG. 14A) pAkt1 and total Akt1 in cell lysate was determined by WB. FIG. 14B) Membrane lipid strip was incubated with recombinant human proIL-1α. IL-1α was detected by ECL system. FIG. 14C) PIP3 and Na, K-ATPase levels in plasma membrane fraction were determined by WB.
Intracellular IL-1α reduced Akt1 activation.
IL-1α pro-piece reduces melanoma tumor progression. To investigate the suppressive effect of intracellular proIL-1α in melanoma tumor progression, we designed a short Peptide Derived from IL-1A pro-piece (SPDIA) “GKVLKKRRLSL” (SEQ ID NO:1).

melanoma cells = test: Cytotoxicity to melanoma cells; format: cell-based, mouse; conditions: 40 μg/ml, 5 h
Experimental: We label the SPDIA peptide with 680XL tag (680XL-SPDIA) using the VivoTag 680XL Protein Labeling Kit (PerkinElmer) for determine half-life and membrane penetrating efficiency of SPDIA peptide. B16 or YUMM1.7 melanoma cells are treated with 680XL-SPDIA peptide at various doses (10-100 μg/ml) and durations (1-10 h), and live images for intracellular expression and half-life of the SPDIA peptide are detected by fluorescence microscopy (Keyence, BZ-X). Further, the cellular cytotoxicity to the B16 and YUMM1.7 melanoma cells are measured by LDH cytotoxicity assay kit.
While we do […] expect to observe any cytotoxicity in vitro, at cells at lower concentrations of SPDIA peptide for longer durations (24, 48 h) and assess cell death.

IL-1α protein = IL-1α protein level in LPS-stimulated peritoneal macrophages (western blot); format: cell-based; conditions: peritoneal macrophages pretreated with peptide 1 hour, stimulated with LPS (3 hours), compared to LPS alone
Experimental: FIG. 2 depicts in accordance with various embodiments of the invention, that TAT-IL-1α peptide diminished IL-1α protein level. Peritoneal macrophages were pretreated with TAT-IL-1α or TAT-control peptides for 1 hour and stimulated with LPS (3 hours). The IL-1α protein level in cell lysate was detected by Western Blot. GAPDH was measured as a loading control.
The inventors investigated whether TAT-IL-1α peptide triggers IL-1α protein degradation by reducing its serine phosphorylation. Peritoneal macrophages were pretreated with TAT-IL-1α or TAT-Control peptides for 1 hour, stimulated with LPS, and the IL-1α protein level in whole cell lysate was detected by western blot (WB) (FIG. 2). The IL-1α protein level was decreased in TAT-IL-1α treated cells.

Akt1 = target: T1, Akt1 (Mus musculus, UniProt P31750); test: Akt1 activation (pAkt1) in melanoma cells by western blot; format: cell-based; conditions: B16 or Yumm 1.7 murine melanoma cells, TAT-IL-1α 40 μg/ml, 5 hours, vs TAT-Control peptide
T1 construct: endogenous in cells
Experimental: FIG. 3 depicts in accordance with various embodiments of the invention, that TAT-IL-1α peptide diminished Akt1 activation and increased HK-2 mitochondrial dissociation. B16 or Yumm 1.7 murine melanoma cells were treated with TAT-IL-1α (40 μg/ml) or TAT-Control peptide for 5 hours. HK-2 level and pAkt1 activation in the cytosolic and mitochondrial fraction were detected by Western Blot. GAPDH was measured as a loading control.
FIGS. 10A-10C depict in accordance with various embodiments of the invention, the iIL-1α-peptide reduces Akt1 activation and glycolysis in melanoma cells. […] FIG. 10B) HK-2 and pAkt1 in cytosolic and mitochondrial fraction were determined by WB. […] FIG. 10C) Extracellular acidification rate (ECAR) was measured by Seahorse and compared over time in PBS and iIL-1α-peptide treated mice.
as §1, with “FIG. 12D) Experimental scheme. FIG. 12E) tumor pictures.” left out, “n=5. […]” for “n=5.”

hexokinase 2 (HK-2) = test: HK-2 mitochondrial/cytosolic fraction level in melanoma cells by western blot; format: cell-based, mouse; conditions: B16 or Yumm 1.7 cells, 40 μg/ml, 5 hours, vs TAT-Control
Experimental: B16 cells isolated from tumors from WT mice were treated with iIL-1α-mimic peptide (iIL-1α-peptide) (40 μg/ml) or PBS for 5 hours. […] FIG. 10B) HK-2 and pAkt1 in cytosolic and mitochondrial fraction were determined by WB. COX-IV and GAPDH was used as a loading controls.
B16 cells were isolated from WT mice and cultured in-vitro. The cells were treated with the iIL-1α-mimic peptide (iIL-1α peptide) or PBS for 5 hours (FIG. 10).
B16 or Yumm1.7 melanoma cells were treated with PBS or iIL-1α-peptide (40 μg/ml) for 5 hours, and HK-2 levels and Akt1 activation in the mitochondrial and cytosolic fraction were determined by western blot.

B16 melanoma cells = test: B16 melanoma lung metastasis/colonization model (tail vein injection); format: in vivo, mouse; conditions: vs TAT-Control peptide; for melanoma (lung) metastasis: B16 cells i.v. in female WT mice, peptide i.v. five days later, lungs harvested five days post treatment
Excerpt: FIGS. 4A-4C depict in accordance with various embodiments of the invention, that TAT-IL-1α peptide reduced lung metastasis. FIG. 4A) Experimental Schematic (top), metastatic lungs (bottom images). FIG. 4B) Quantification of tumor number in TAT-Control and TAT-IL-1α. FIG. 4C) Melanin content of the metastatic lungs in TAT-Control and TAT-IL-1α.
FIGS. 11A-11C depict in accordance with various embodiments of the invention, that the iIL-1α-peptide reduces melanoma colonization in the lung. FIG. 11A) Experimental scheme and representative lung pictures. FIG. 11B) Quantification of tumor number, **p<0.01. FIG. 11C) Quantification of melanin content, *p<0.05. n=4.
The B16 (also referred herein as “B16F10”) mouse melanoma metastasis model is widely accepted, as B16 cells injected via tail vein reliably colonize the lungs, with easily identifiable tumors after 7-14 days. While the use of a genetic melanoma model may be ideal, it requires the use of immunodeficient mice or the complicated and expensive humanized mice. While the B16 model may have its known caveats, it has repeatedly given very useful novel mechanistic clues that can be further tested in more relevant models, such as genetically engineered mice. In addition to the B16 model, a mouse melanoma cell line with human genetic drivers that are more relevant to human melanoma formation and progression were also used. To this effect, a non-immunogenic cell line (YUMM1.7) was used. In the YUMM1.7 cells, nearly 50% of human melanomas harbor a gain of function in the Braf^V600E Cdkn2a−/− Pten−/− mutations and they form reliable lung tumors following tail vein injection (5×10^5, in 3 weeks). Other common mutations in human melanoma include CDKN2A (familial melanoma gene), inactivation of tumor suppressors including INK4A, ARF, p53, and PTEN, as well as mutations in proto-oncogenes such as H-RAS, N-RAS, and K-RAS.
The peptides were subsequently tested in vivo. B16 melanoma cells were intravenously (i.v.) injected in the tail vein of female WT mice. Five days later, TAT-IL-1α or TAT-Control peptide was injected in the tail vein (i.v.). Five days post treatment, lungs were harvested and examined for metastasis. […] The tumor number and melanin content were diminished in the TAT-IL-1α treatment group compared to TAT-Control peptide treatment. (FIGS. 4B and 4C).
The mouse models used were C57Bl/6 WT or Il1α−/− mice injected with B16 cells (2×10^5 tail vein), (3×10^5 subcutaneous) or C57Bl/6 WT mice injected with YUMM1.7 cells (5×10^5 subcutaneous). The IL-1α, pAkt1 and HK-2 levels were determined by WB. The glycolytic rate in B16 cells was measured by Seahorse.
The iIL-1α-peptide reduces tumor burden in vivo. The protective role of the iIL-1α-peptide against melanoma colonization was investigated. […] The mice were analyzed 5 days later.

[2] = B16 i.v. model, peptide i.v. day 5

T1 sequence (P31750 whole entry): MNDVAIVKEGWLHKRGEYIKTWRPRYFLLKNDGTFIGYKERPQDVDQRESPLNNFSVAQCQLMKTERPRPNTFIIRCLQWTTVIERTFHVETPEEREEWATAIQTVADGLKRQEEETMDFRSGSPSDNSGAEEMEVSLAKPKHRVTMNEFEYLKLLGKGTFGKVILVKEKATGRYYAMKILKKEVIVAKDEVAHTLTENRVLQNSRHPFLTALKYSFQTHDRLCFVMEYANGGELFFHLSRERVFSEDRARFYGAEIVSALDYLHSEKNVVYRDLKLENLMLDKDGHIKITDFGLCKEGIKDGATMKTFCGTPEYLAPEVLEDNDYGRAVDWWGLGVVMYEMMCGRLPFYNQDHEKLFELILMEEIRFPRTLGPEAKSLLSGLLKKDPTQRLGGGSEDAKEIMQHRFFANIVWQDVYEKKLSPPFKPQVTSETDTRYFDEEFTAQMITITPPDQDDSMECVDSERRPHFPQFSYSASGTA

CC(C)C[C@@H](C=O)NC(=O)[C@H](CC(C)C)NC(=O)[C@H](CC(C)C)NC(=O)OCc1ccccc1 [MG132] (Cbz-Leu-Leu-Leu-aldehyde)
S87A-IL-1α protein in cell lysate (S87A-IL-1α protein): clearly detected

GKVLKKAALSL [control peptide, SPDIA with arginine residues replaced by alanine, reference compound]
interaction with phosphoinositides on membrane lipid strip [1]: fails to bind with PIP and PIP2

GKVLKKRRLSL [SPDIA, GKVLKKRRLSL]
cytotoxicity (melanoma cells): without inducing cytotoxicity

YGRKKRRQRRRLAKARLAL [TAT-Control peptide, control peptide for TAT-IL-1α peptide, reference compound]
IL-1α protein level in whole cell lysate (IL-1α protein): slightly decreased

YGRKKRRQRRRLKKRRLSL [TAT-IL-1α peptide]
IL-1α protein level in whole cell lysate (IL-1α protein): diminished
IL-1α protein level in whole cell lysate (IL-1α protein; listed as TAT-IL-1α): decreased
Akt1 activation (pAkt1) (Akt1): diminished
Akt1 activation (pAkt1) (Akt1; listed as TAT-IL-1α): significantly inhibited
HK-2 mitochondrial dissociation (hexokinase 2 (HK-2)): increased
HK-2 mitochondrial translocation (hexokinase 2 (HK-2)): diminished
melanoma (lung) metastasis (B16 melanoma cells): reduced
melanoma (lung) metastasis (B16 melanoma cells; listed as TAT-IL-1α): significantly reduced
melanin content of the metastatic lungs (B16 melanoma cells; [2]): diminished
tumor number (metastatic lungs) (B16 melanoma cells; [2]): diminished

B1: proIL-1α: recombinant human proIL-1α incubated with membrane lipid strip (protein, UniProt P01583 1-271, looked up)
pro-form: MAKVPDMFEDLKNCYSENEEDSSSIDHLSLNQKSFYHVSYGPLHEGCMDQSVSLSISETSKTSKLTFKESMVVVATNGKVLKKRRLSLSQSITDDDLEAIANDSEEEIIKPRSAPFSFLSNVKYNFMRIIKYEFILNDALNQSIIRANDQYLTAAALHNLDEAVKFDMGAYKSSKDDAKITVILRISKTQLYVTAQDEDQPVLLKEMPEIPKTITGSETNLLFFWETHGTKNYFTSVAHPNLFIATKQDYWVCLAGGPPSITDFQILENQA
modifications: pro-form
notes: recombinant human proIL-1α incubated with membrane lipid strip
interaction with phosphoinositides on membrane lipid strip [1]: interaction with phosphoinositides such as PI(4)P (PIP), PI(4,5)P2 (PIP2) and PI(3,4,5)P3 (PIP3)
